Results published in the kinase profiling compilation of Christmann-Franck et al. (2016).

What was measured:
Assay in all cases: radiometric filter-binding kinase assay, Kinase HotSpot
Details in all cases: compound 0.5 µM; ATP 10 µM
SRPK1 (human) = SRPK1 (human) (UniProt Q96SB4)
GSK3B (human) = GSK3B (human) (UniProt P49841)
MERTK (human) = MERTK (human) (UniProt Q12866)
PLK3 (human) = PLK3 (human) (UniProt Q9H4B4)
ABL2 (human) = ABL2 (human) (UniProt P42684)
CDK7 CCNH MNAT1 (human) = CDK7 CCNH MNAT1 (human) (UniProt P50613+P51948+P51946)
PNCK (human) = PNCK (human) (UniProt Q6P2M8)
[1] = target: TYK2 JH1 catalytic (human) (UniProt P29597)
TAOK2 (human) = TAOK2 (human) (UniProt Q9UL54)
MARK1 (human) = MARK1 (human) (UniProt Q9P0L2)
TGFBR2 (human) = TGFBR2 (human) (UniProt P37173)
Chain of TGFBR2 (human) (P37173 whole entry, looked up): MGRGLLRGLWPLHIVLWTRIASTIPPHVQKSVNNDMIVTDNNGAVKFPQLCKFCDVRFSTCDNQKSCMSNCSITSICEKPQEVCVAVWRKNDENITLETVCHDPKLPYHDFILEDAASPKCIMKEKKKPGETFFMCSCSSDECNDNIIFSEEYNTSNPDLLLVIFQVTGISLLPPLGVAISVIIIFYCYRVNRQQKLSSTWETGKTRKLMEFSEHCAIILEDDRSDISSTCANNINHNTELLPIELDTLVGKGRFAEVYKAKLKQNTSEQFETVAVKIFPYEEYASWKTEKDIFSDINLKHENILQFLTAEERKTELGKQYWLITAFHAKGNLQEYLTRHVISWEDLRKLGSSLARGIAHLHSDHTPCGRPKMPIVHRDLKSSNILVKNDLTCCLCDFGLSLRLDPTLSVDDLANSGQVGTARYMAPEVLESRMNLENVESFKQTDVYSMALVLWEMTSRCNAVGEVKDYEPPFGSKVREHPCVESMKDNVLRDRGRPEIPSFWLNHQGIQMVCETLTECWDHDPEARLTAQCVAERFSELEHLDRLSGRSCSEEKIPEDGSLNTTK

MAPKAPK5 (human) = MAPKAPK5 (human) (UniProt Q8IW41)
LIMK1 (human) = LIMK1 (human) (UniProt P53667)
Chain of LIMK1 (human) (P53667 whole entry, looked up): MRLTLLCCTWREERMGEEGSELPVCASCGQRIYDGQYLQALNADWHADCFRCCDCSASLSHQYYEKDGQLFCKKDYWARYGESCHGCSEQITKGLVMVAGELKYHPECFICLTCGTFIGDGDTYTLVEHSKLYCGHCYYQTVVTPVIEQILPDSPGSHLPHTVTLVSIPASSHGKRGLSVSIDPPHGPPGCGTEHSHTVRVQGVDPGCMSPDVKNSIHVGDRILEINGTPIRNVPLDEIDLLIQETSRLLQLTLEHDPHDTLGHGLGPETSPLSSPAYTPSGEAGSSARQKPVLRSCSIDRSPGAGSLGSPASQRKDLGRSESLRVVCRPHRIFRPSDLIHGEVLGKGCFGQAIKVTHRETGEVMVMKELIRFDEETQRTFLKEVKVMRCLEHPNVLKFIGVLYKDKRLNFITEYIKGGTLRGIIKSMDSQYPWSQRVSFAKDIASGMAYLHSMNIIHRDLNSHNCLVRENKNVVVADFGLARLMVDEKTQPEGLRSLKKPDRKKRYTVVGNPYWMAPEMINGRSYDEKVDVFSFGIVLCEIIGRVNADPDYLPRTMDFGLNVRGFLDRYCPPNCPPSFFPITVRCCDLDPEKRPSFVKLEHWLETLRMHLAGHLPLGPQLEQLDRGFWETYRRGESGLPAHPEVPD

NTRK2 (human) = NTRK2 (human) (UniProt Q16620)
Chain of NTRK2 (human) (Q16620 whole entry, looked up): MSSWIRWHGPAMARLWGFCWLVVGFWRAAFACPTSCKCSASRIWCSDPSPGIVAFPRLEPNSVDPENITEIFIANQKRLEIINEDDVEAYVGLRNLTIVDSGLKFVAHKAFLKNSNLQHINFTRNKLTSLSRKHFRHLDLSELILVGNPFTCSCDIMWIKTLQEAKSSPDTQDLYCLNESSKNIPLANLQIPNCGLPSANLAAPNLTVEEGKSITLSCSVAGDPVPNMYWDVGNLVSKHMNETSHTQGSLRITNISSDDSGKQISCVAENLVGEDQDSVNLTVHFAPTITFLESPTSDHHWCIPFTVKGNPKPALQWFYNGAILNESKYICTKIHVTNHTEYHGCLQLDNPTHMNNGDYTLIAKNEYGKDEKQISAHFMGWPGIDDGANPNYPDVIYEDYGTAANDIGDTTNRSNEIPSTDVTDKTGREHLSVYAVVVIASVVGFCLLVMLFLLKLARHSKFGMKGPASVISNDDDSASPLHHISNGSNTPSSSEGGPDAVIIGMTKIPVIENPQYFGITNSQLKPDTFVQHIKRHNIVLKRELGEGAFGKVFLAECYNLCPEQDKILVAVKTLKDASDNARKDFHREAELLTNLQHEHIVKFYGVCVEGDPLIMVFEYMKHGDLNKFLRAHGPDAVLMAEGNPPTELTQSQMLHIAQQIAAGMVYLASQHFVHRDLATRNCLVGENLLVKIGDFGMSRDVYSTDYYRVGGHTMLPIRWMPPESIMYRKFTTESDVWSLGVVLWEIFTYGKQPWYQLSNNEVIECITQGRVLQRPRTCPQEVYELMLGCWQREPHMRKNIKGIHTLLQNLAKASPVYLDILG

MAP3K10 (human) = MAP3K10 (human) (UniProt Q02779)
CSNK1G3 (human) = CSNK1G3 (human) (UniProt Q9Y6M4)
CAMK1D (human) = CAMK1D (human) (UniProt Q8IU85)
PRKCD (human) = PRKCD (human) (UniProt Q05655)
DYRK4 (human) = DYRK4 (human) (UniProt Q9NR20)
PDPK1 (human) = PDPK1 (human) (UniProt O15530)
EPHA6 (human) = EPHA6 (human) (UniProt Q9UF33)
MAP2K1 (human) = MAP2K1 (human) (UniProt Q02750)
PBK (human) = PBK (human) (UniProt Q96KB5)
Chain of PBK (human) (Q96KB5 whole entry, looked up): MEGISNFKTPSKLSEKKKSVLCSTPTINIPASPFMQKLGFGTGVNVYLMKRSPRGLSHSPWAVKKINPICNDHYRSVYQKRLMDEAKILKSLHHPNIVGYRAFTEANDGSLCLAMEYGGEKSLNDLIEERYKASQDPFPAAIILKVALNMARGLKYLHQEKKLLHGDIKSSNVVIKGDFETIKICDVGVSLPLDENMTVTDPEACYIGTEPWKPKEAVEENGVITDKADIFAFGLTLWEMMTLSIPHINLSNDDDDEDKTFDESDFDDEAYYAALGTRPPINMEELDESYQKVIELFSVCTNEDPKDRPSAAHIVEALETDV

PRKG2 (human) = PRKG2 (human) (UniProt Q13237)
CDK9 CCNT1 (human) = CDK9 CCNT1 (human) (UniProt P50750+O60563)
GRK5 (human) = GRK5 (human) (UniProt P34947)
Chain of GRK5 (human) (P34947 whole entry, looked up): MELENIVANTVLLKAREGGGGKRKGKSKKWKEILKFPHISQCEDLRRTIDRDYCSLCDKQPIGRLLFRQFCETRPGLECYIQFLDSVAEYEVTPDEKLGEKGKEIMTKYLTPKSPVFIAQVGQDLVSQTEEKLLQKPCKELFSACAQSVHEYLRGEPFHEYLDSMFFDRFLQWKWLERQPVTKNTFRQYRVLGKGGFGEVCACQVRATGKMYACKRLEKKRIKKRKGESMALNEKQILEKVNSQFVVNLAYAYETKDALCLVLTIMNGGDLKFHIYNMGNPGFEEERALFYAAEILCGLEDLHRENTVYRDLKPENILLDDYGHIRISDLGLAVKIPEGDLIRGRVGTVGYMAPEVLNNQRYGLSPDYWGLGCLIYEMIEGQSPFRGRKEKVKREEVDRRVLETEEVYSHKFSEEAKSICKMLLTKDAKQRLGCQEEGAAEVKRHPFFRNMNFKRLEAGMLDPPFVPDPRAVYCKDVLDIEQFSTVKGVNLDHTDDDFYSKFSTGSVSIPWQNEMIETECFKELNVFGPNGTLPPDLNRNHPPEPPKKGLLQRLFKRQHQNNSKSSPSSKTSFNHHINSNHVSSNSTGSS

CDK9 CCNK (human) = CDK9 CCNK (human) (UniProt O75909+P50750)
YES1 (human) = YES1 (human) (UniProt P07947)
Chain of YES1 (human) (P07947 whole entry, looked up): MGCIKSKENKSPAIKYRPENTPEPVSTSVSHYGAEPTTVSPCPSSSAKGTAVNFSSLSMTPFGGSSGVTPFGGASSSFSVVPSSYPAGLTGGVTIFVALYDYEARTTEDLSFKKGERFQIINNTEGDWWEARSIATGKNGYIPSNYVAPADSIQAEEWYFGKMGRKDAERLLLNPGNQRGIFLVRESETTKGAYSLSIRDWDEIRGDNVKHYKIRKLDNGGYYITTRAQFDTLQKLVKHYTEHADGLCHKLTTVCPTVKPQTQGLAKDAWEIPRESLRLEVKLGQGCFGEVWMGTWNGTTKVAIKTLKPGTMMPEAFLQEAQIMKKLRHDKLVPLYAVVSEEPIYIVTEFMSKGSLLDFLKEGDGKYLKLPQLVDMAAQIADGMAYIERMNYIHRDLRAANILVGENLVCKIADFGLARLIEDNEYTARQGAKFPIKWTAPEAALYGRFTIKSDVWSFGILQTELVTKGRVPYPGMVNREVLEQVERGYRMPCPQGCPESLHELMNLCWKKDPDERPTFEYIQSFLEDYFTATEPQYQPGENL

PRKCE (human) = PRKCE (human) (UniProt Q02156)
FGFR4 (human) = FGFR4 (human) (UniProt P22455)
DSTYK (human) = DSTYK (human) (UniProt Q6XUX3)
DYRK1B (human) = DYRK1B (human) (UniProt Q9Y463)
NUAK1 (human) = NUAK1 (human) (UniProt O60285)
FLT3 (human) = FLT3 (human) (UniProt P36888)
Chain of FLT3 (human) (P36888 whole entry, looked up): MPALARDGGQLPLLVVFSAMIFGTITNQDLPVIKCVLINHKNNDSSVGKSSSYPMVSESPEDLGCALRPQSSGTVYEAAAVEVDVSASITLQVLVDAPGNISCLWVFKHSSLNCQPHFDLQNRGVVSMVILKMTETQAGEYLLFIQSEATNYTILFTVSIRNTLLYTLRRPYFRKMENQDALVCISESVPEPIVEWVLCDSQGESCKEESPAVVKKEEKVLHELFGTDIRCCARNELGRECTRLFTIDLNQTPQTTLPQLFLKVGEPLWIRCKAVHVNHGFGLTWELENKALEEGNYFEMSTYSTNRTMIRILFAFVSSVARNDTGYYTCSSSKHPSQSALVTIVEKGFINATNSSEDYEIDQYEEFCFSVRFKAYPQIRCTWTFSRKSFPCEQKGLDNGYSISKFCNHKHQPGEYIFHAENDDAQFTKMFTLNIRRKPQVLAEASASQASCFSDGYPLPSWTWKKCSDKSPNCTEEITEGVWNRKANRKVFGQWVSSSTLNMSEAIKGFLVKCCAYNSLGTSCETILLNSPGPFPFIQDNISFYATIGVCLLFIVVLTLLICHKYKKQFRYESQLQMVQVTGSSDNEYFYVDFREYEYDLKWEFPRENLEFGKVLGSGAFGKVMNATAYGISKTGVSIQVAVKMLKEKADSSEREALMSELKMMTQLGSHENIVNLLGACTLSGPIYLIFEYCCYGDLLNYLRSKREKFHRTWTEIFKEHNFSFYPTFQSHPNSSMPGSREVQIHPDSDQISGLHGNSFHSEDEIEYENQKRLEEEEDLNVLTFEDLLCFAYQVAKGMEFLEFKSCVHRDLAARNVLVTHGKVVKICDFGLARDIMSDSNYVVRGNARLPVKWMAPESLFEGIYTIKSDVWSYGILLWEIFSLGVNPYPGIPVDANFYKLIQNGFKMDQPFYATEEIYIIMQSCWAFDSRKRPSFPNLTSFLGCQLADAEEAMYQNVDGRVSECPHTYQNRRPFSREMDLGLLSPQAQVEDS

CDC42BPB (human) = CDC42BPB (human) (UniProt Q9Y5S2)
JAK3 JH1 JH2 (human) = JAK3 JH1 JH2 (human) (UniProt P52333)
PAK1 (human) = PAK1 (human) (UniProt Q13153)
ACVRL1 (human) = ACVRL1 (human) (UniProt P37023)
Chain of ACVRL1 (human) (P37023 whole entry, looked up): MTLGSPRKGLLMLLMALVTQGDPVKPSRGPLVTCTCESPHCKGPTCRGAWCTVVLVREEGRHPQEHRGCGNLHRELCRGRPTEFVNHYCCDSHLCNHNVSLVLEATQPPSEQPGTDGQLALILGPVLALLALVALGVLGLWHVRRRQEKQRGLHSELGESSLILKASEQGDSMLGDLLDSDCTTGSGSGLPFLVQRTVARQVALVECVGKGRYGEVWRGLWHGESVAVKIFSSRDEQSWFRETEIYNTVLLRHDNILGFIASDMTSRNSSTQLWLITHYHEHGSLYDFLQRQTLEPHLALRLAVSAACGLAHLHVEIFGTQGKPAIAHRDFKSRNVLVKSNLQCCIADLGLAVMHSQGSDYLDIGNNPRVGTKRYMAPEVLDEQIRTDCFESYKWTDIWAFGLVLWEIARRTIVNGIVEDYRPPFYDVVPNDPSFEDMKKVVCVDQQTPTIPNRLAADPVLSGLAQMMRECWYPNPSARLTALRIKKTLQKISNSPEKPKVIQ

JAK2 JH1 JH2 (human) = JAK2 JH1 JH2 (human) (UniProt O60674)
DAPK2 (human) = DAPK2 (human) (UniProt Q9UIK4)
PAK2 (human) = PAK2 (human) (UniProt Q13177)

## Nc1ncnc2[nH]nc(Nc3ccc(F)cc3)c12
SRPK1 (human)
  residual activity: 104%
GSK3B (human)
  residual activity: 101%
MERTK (human)
  residual activity: 90.7%
PLK3 (human)
  residual activity: 98%
ABL2 (human)
  residual activity: 82.3%
CDK7 CCNH MNAT1 (human)
  residual activity: 98.4%
PNCK (human)
  residual activity: 98.4%
[1]
  residual activity: 92.3%
TAOK2 (human)
  residual activity: 97.3%
MARK1 (human)
  residual activity: 93.8%
TGFBR2 (human)
  residual activity: 101%
MAPKAPK5 (human)
  residual activity: 80.9%
LIMK1 (human)
  residual activity: 95.2%
NTRK2 (human)
  residual activity: 101%
MAP3K10 (human)
  residual activity: 85.9%
CSNK1G3 (human)
  residual activity: 97.9%
CAMK1D (human)
  residual activity: 130%
PRKCD (human)
  residual activity: 112%
DYRK4 (human)
  residual activity: 104%
PDPK1 (human)
  residual activity: 102%
EPHA6 (human)
  residual activity: 49.3%
MAP2K1 (human)
  residual activity: 101%
PBK (human)
  residual activity: 87.6%
PRKG2 (human)
  residual activity: 97%
CDK9 CCNT1 (human)
  residual activity: 99.1%
GRK5 (human)
  residual activity: 97.1%
CDK9 CCNK (human)
  residual activity: 92.4%
YES1 (human)
  residual activity: 92.9%
PRKCE (human)
  residual activity: 99.5%
FGFR4 (human)
  residual activity: 107%
DSTYK (human)
  residual activity: 109%
DYRK1B (human)
  residual activity: 99.2%
NUAK1 (human)
  residual activity: 95.5%
FLT3 (human)
  residual activity: 78.3%
CDC42BPB (human)
  residual activity: 106%
JAK3 JH1 JH2 (human)
  residual activity: 102%
PAK1 (human)
  residual activity: 95.2%
ACVRL1 (human)
  residual activity: 108%
JAK2 JH1 JH2 (human)
  residual activity: 105%
DAPK2 (human)
  residual activity: 85.5%
PAK2 (human)
  residual activity: 103%

## CCN(CC)CCNC(=O)c1c(C)[nH]c(/C=C2\C(=O)Nc3ccc(Cl)cc32)c1C
SRPK1 (human)
  residual activity: 95.9%
GSK3B (human)
  residual activity: 93.1%
MERTK (human)
  residual activity: 11.5%
PLK3 (human)
  residual activity: 89.8%
ABL2 (human)
  residual activity: 46.8%
CDK7 CCNH MNAT1 (human)
  residual activity: 72.8%
PNCK (human)
  residual activity: 70.5%
[1]
  residual activity: 30.8%
TAOK2 (human)
  residual activity: 72.6%
MARK1 (human)
  residual activity: 18.1%
TGFBR2 (human)
  residual activity: 113%
MAPKAPK5 (human)
  residual activity: 91.6%
LIMK1 (human)
  residual activity: 98.4%
NTRK2 (human)
  residual activity: 8.43%
MAP3K10 (human)
  residual activity: 82.8%
CSNK1G3 (human)
  residual activity: 47.7%
CAMK1D (human)
  residual activity: 60.2%
PRKCD (human)
  residual activity: 90.4%
DYRK4 (human)
  residual activity: 97.9%
PDPK1 (human)
  residual activity: 101%
EPHA6 (human)
  residual activity: 45.7%
MAP2K1 (human)
  residual activity: 33.1%
PBK (human)
  residual activity: 104%
PRKG2 (human)
  residual activity: 82.6%
CDK9 CCNT1 (human)
  residual activity: 58.8%
GRK5 (human)
  residual activity: 82.7%
CDK9 CCNK (human)
  residual activity: 40.1%
YES1 (human)
  residual activity: 5.29%
PRKCE (human)
  residual activity: 102%
FGFR4 (human)
  residual activity: 70.5%
DSTYK (human)
  residual activity: 105%
DYRK1B (human)
  residual activity: 47.5%
NUAK1 (human)
  residual activity: 2.06%
FLT3 (human)
  residual activity: 0.782%
CDC42BPB (human)
  residual activity: 96.1%
JAK3 JH1 JH2 (human)
  residual activity: 39.3%
PAK1 (human)
  residual activity: 93.4%
ACVRL1 (human)
  residual activity: 89%
JAK2 JH1 JH2 (human)
  residual activity: 54%
DAPK2 (human)
  residual activity: 86.7%
PAK2 (human)
  residual activity: 92.7%

## O=C1NC(=O)C(c2cn(CCCn3ccnc3)c3ccccc23)=C1Nc1ccccc1
SRPK1 (human)
  residual activity: 99.5%
GSK3B (human)
  residual activity: 14.2%
MERTK (human)
  residual activity: 86.1%
PLK3 (human)
  residual activity: 99.8%
ABL2 (human)
  residual activity: 91.8%
CDK7 CCNH MNAT1 (human)
  residual activity: 96.3%
PNCK (human)
  residual activity: 90.6%
[1]
  residual activity: 83.4%
TAOK2 (human)
  residual activity: 92.3%
MARK1 (human)
  residual activity: 93.6%
TGFBR2 (human)
  residual activity: 134%
MAPKAPK5 (human)
  residual activity: 96.4%
LIMK1 (human)
  residual activity: 83.8%
NTRK2 (human)
  residual activity: 85.8%
MAP3K10 (human)
  residual activity: 34.5%
CSNK1G3 (human)
  residual activity: 110%
CAMK1D (human)
  residual activity: 97.4%
PRKCD (human)
  residual activity: 19.3%
DYRK4 (human)
  residual activity: 89%
PDPK1 (human)
  residual activity: 80.3%
EPHA6 (human)
  residual activity: 106%
MAP2K1 (human)
  residual activity: 90.6%
PBK (human)
  residual activity: 104%
PRKG2 (human)
  residual activity: 80.3%
CDK9 CCNT1 (human)
  residual activity: 51.3%
GRK5 (human)
  residual activity: 90.9%
CDK9 CCNK (human)
  residual activity: 64.6%
YES1 (human)
  residual activity: 89.3%
PRKCE (human)
  residual activity: 12.8%
FGFR4 (human)
  residual activity: 74.6%
DSTYK (human)
  residual activity: 102%
DYRK1B (human)
  residual activity: 56.3%
NUAK1 (human)
  residual activity: 70.6%
FLT3 (human)
  residual activity: 8.21%
CDC42BPB (human)
  residual activity: 105%
JAK3 JH1 JH2 (human)
  residual activity: 7.97%
PAK1 (human)
  residual activity: 92.9%
ACVRL1 (human)
  residual activity: 95.9%
JAK2 JH1 JH2 (human)
  residual activity: 84.3%
DAPK2 (human)
  residual activity: 104%
PAK2 (human)
  residual activity: 88.5%
